Reference: ChEMBL document CHEMBL1158791, “Grayanane diterpenoids from the flowers of Rhododendron molle with cytotoxic activity against a Spodoptera frugiperda cell line” (J Nat Prod, 2005)
In brackets after ≈: the same amount, converted by molar mass.

Assay: Cytotoxicity against Spodoptera frugiperda Sf9 cells after 48 hrs
Assay type: functional, cell-based
Conditions: Sf9, 48 h
C/C=C(\C)C(=O)O[C@H]1C[C@@H](OC(C)=O)[C@@]2(C(=O)OC)CO[C@H]3[C@@H](O)[C@@](C)([C@]45O[C@@]4(C)[C@@H]4C[C@H]5O[C@@H]5OC=C[C@@]54O)[C@H]4[C@]1(CO[C@]4(O)C(=O)OC)[C@@H]32 [AZADIRACHTIN A] gave an IC50 of 20.3 µg/mL (≈ 28.2 µM). Work on CC1(C)[C@H]2O[C@H]2[C@H]2[C@](C)(O)[C@@H]3CC[C@@H]4[C@H](O)[C@@]3(C[C@@H](O)[C@@]21O)C[C@@]4(C)O [RHODOJAPONIN] yielded an IC50 of 12.6 µg/mL (≈ 34.2 µM). With C=C1[C@@H]2[C@H](OC)[C@H](O)C(C)(C)[C@@]2(O)[C@H](O)C[C@]23C[C@@](C)(O)[C@H](CC[C@@H]12)[C@H]3O [RHODOMOLIN A] the IC50 was 37.8 µg/mL (≈ 98.8 µM). C=C1[C@@H]2[C@H](O)[C@H](O)C(C)(C)[C@@]2(O)[C@H](O)C[C@]23C[C@@](C)(O)[C@H](CC[C@@H]12)[C@H]3OC(C)=O [RHODOMOLIN B] gave an IC50 of 25.6 µg/mL (≈ 62.4 µM).
